# Experimental data taken from patent US9618502B2, “Muscle stem cell or myoblast, method for screening substances that participate in metabolic conversion using same, and pharmaceutical composition comprising substance obtained from said screening method” (TOKYO METROPOLITAN GERIATRIC HOSPITAL AND INSTITUTE OF …, priority 2013, dated 2017).
# B1: mouse fibroblast growth factor 21: protein consisting of the amino acid sequence of SEQ ID NO: 1, mouse fibroblast growth factor 21 (protein, listed as Mus musculus)
# chain: MEWMRSRVGTLGLWVRLLLAVFLLGVYQAYPIPDSSPLLQFGGQVRQRYLYTDDDQDTEAHLEIREDGTVVGAAHRSPESLLELKALKPGVIQILGVKASRFLCQQPDGALYGSPHFDPEACSFRELLLEDGYNVYQSEAHGLPLRLPQKDSPNQDATSWGPVRFLPMPGLLHEPQDQAGFLPPEPPDVGSSDPLSMVEPLQGRSPSYAS
# Experiments:
# Format in all cases: cell-based, mouse
# [1] = test system: cells expressing the myosin-heavy chain I protein; test: Screening method of substances involved in a metabolic shift: myotube cells from immortalized muscle stem cells, YFP fluorescence; conditions: for area of cells expressing the myosin-heavy chain I protein: two days treatment; for number of myotube cells that generate fluorescence of YFP (myosin-heavy chain I): compared to the negative control
# Experimental: (§1) In this Example, 27 test compounds were tested by the screening method of substances involved in a metabolic shift using the immortalized muscle stem cells (satellite cells) prepared in Example 2.
# (§2) The immortalized muscle stem cells (1×10^5) were seeded on a 60 mm dish or the immortalized muscle stem cells (2×10^3) were seeded on a 96 well plate. The cells were cultured in a DMEM containing 20% FBS, bFGF (10 ng/mL), and IFNy (10 ng/mL) at 33° C. for 1 day, and then, cultured in a DMEM containing 5% HS at 37° C. for 3 days. Subsequently, test substances were serially diluted by a DMEM containing 5% horse serum at an appropriate dilution rate, and the diluted substances were added to the dishes respectively. After two days treatment, fluorescences of YFP, Sirius, mCherry, and mCerulean in the living cells were observed using a fluorescence microscope, and the number of cells, which generate the respective fluorescence, was measured.
# (§3) In this example, additional test compounds were tested using the immortalized muscle stem cells (satellite cells) prepared in Example 2. The screening method of substances involved in a metabolic shift was performed by repeating a procedure of Example 3.
# [2] = test system: cells expressing the myosin-heavy chain IIb protein; test: Screening method of substances involved in a metabolic shift: myotube cells from immortalized muscle stem cells, mCherry fluorescence; conditions: for area of cells expressing the myosin-heavy chain IIb protein: two days treatment; for number of myotube cells that generate fluorescence of mCherry (cells expressing myosin-heavy chain IIb): compared to the negative control
# Experimental: as §1, §2, §3
# [3] = test system: immortalized muscle stem cells (satellite cells); test: Proliferation inhibition screening method using satellite cells; conditions: 5 nM, five days of culturing, versus control without rapamycin
# Experimental: The rapamycin was obtained by the metabolic shift screening method in Example 3. In this Example, whether or not the rapamycin can be screened by the proliferation inhibition screening method using satellite cells was examined.
# The immortalized muscle stem cells (1×10^4) were seeded on a 35 mm dish. The cells were cultured in a DMEM containing 20% FBS, bFGF (lOng/mL), and IFNγ (10 ng/mL) at 33° C. for 1 day, and then the rapamycin was diluted to a concentration of 5 nM by a DMEM containing 5% FBS, and the diluted rapamycin was added to the dish. The number of cells was counted after five days of culturing. […] The term “Control” means negative control in which the rapamycin was not added. The proliferation of satellite cells was inhibited by adding rapamycin.
Molecule,"area of cells expressing the myosin-heavy chain I protein ([1]; 100 ng/mL, negative control 19.5%)","area of cells expressing the myosin-heavy chain I protein ([1]; 500 ng/mL, negative control 19.5%)",number of myotube cells that generate fluorescence of YFP (myosin-heavy chain I) [1],"area of cells expressing the myosin-heavy chain IIb protein ([2]; 500 ng/mL, negative control 36.2%)",number of myotube cells that generate fluorescence of mCherry (cells expressing myosin-heavy chain IIb) [2],"area of cells expressing the myosin-heavy chain IIb protein ([2]; 100 nM, negative control 44.5%)","area of cells expressing the myosin-heavy chain IIb protein ([2]; 500 nM, negative control 44.5%)","area of cells expressing the myosin-heavy chain I protein ([1]; 1 nM, negative control 28.4%)","area of cells expressing the myosin-heavy chain I protein ([1]; 10 nM, negative control 28.4%)","area of cells expressing the myosin-heavy chain I protein ([1]; 100 nM, negative control 28.4%)","area of cells expressing the myosin-heavy chain I protein ([1]; 4 nM, negative control 25.3%)","area of cells expressing the myosin-heavy chain IIb protein ([2]; 4 nM, negative control 41.8%)",proliferation of satellite cells (number of cells) [3]
"IL-15: IL-15, one of the test substances",35.0%,36.1%,increased,53.0%,increased,–,–,–,–,–,–,–,–
"N[C@@H](Cc1cc(I)c(Oc2ccc(O)c(I)c2)c(I)c1)C(=O)O [T3, triiodothyronine]",–,–,–,–,increased,71.3%,70.0%,–,–,–,–,–,–
C[C@H](Cc1ccc2c(c1)OC(C(=O)[O-])(C(=O)[O-])O2)NC[C@H](O)c1cccc(Cl)c1.[Na+].[Na+] [CL316243],–,–,increased,–,remains static,–,–,49.3%,53.8%,57.8%,–,–,–
CO[C@H]1C[C@@H]2CC[C@@H](C)[C@@](O)(O2)C(=O)C(=O)N2CCCC[C@H]2C(=O)O[C@H]([C@H](C)C[C@@H]2CC[C@@H](O)[C@H](OC)C2)CC(=O)[C@H](C)/C=C(\C)[C@@H](O)[C@@H](OC)C(=O)[C@H](C)C[C@H](C)/C=C/C=C/C=C/1C [rapamycin],–,–,increased,–,decreased,–,–,–,–,–,60.9%,8.4%,inhibited
B1,–,–,increased,–,remains static,–,–,40.6%,48.0%,54.9%,–,–,–
